Patent US10457685B2, “[1,2,3]triazolo[4,5-D]pyrimidine derivatives with affinity for the type-2 cannabinoid receptor” (Hoffmann-La Roche Inc., priority 2016, dated 2019)

Assays:
[1] = target: human CB1 receptor (CNR1) (Homo sapiens (Human), UniProt P21554); test: Radioligand binding assay ([3H]-CP-55,940), membranes of HEK cells expressing human CNR1; conditions: 1.5 nM [3H]-CP-55,940, HEK cell membranes, 1 h at 30° C.
Procedure: (§1) Radioligand Binding Assay
(§2) The affinity of the compounds of the invention for cannabinoid receptors was determined using recommended amounts of membrane preparations (PerkinElmer) of human embryonic kidney (HEK) cells expressing the human CNR1 or CNR2 receptors in conjunction with 1.5 or 2.6 nM [3H]-CP-55,940 (Perkin Elmer) as radioligand, respectively. Binding was performed in binding buffer (50 mM Tris, 5 mM MgCl2, 2.5 mM EDTA, and 0.5% (wt/vol) fatty acid free BSA, pH 7.4 for CB1 receptor and 50 mM Tris, 5 mM MgCl2, 2.5 mM EGTA, and 0.1% (wt/vol) fatty acid free BSA, pH 7.4 for CB2 receptor) in a total volume of 0.2 mL for 1 h at 30° C. shaking. The reaction was terminated by rapid filtration through microfiltration plates coated with 0.5% polyethylenimine (UniFilter GF/B filter plate; Packard). Bound radioactivity was analyzed for Ki using nonlinear regression analysis (Activity Base, ID Business Solution, Limited), with the Kd values for [^3H]CP55,940 determined from saturation experiments.

[2] = target: human CB2 receptor (CNR2) (Homo sapiens (Human), UniProt P34972); test: Radioligand binding assay ([3H]-CP-55,940), membranes of HEK cells expressing human CNR2; conditions: 2.6 nM [3H]-CP-55,940, HEK cell membranes, 1 h at 30° C.
Procedure: as §1, §2

Sequence of human CB2 receptor (CNR2) (P34972 whole entry): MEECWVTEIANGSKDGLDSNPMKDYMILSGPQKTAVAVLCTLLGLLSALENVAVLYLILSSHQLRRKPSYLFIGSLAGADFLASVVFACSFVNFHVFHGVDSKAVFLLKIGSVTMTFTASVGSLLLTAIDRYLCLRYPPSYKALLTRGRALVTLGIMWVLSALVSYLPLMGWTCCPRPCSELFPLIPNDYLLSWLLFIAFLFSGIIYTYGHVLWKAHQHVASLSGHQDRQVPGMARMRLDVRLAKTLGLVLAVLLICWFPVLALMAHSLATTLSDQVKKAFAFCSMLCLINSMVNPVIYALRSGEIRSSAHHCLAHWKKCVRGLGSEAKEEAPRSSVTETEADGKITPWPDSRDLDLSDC
Sequence of human CB1 receptor (CNR1) (P21554 whole entry): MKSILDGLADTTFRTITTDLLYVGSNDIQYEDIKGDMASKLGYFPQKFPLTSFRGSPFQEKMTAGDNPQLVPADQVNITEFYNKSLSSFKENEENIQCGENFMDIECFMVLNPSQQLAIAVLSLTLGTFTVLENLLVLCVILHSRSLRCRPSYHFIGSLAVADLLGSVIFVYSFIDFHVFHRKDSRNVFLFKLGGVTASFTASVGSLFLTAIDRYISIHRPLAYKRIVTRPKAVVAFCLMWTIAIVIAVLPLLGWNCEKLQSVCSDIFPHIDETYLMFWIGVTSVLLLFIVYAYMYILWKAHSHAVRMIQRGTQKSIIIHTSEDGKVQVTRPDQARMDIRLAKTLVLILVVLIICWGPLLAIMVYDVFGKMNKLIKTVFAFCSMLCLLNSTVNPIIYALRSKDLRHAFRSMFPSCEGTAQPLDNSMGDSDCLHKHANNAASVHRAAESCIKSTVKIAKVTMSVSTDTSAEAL

| SMILES | Ki [1] [nM] | Ki [2] [nM] |
| --- | --- | --- |
| CC(C)(C)c1nc(N2CCC(F)(F)C2)c2nnn(Cc3ccccc3CSSCCO)c2n1 [Example 25, 2-[[2-[[5-tert-Butyl-7-(3,3-difluoropyrrolidin-1-yl)triazolo[4,5-d]pyrimidin-3-yl]methyl]phenyl]methyldisulfanyl]ethanol] | 211 | 9 |
| O=S(=O)(F)c1ccccc1Cn1nnc2c(N3CCC(F)(F)C3)nc(C(F)(F)c3ccccc3)nc21 [Example 26, 2-[[5-[Difluoro(phenyl)methyl]-7-(3,3-difluoropyrrolidin-1-yl)triazolo[4,5-d]pyrimidin-3-yl]methyl]benzenesulfonyl fluoride] | > 10000 | 630 |
| FC1(F)CCN(c2nc(C(F)(F)c3ccccc3)nc3c2nnn3Cc2ccccc2CCSSc2ccccn2)C1 [Example 27, 5-[Difluoro(phenyl)methyl]-7-(3,3-difluoropyrrolidin-1-yl)-3-[[2-[2-(pyridin-2-yldisulfanyl)ethyl]phenyl]methyl]triazolo[4,5-d]pyrimidine] | 3040 | 262 |
| OCCSSCCc1ccccc1Cn1nnc2c(N3CCC(F)(F)C3)nc(C(F)(F)c3ccccc3)nc21 [Example 28, 2-[2-[2-[[5-[Difluoro(phenyl)methyl]-7-(3,3-difluoropyrrolidin-1-yl)triazolo[4,5-d]pyrimidin-3-yl]methyl]phenyl]ethyldisulfanyl]ethanol] | 1080 | 138 |
| CC(C)(C)c1nc(N2CCC(F)(F)C2)c2nnn(Cc3ccccc3CCSSCCO)c2n1 [Example 29, 2-[2-[2-[[5-tert-Butyl-7-(3,3-difluoropyrrolidin-1-yl)triazolo[4,5-d]pyrimidin-3-yl]methyl]phenyl]ethyldisulfanyl]ethanol] | 205 | 6 |
| CC(C)(C)c1nc(N2CCC(F)(F)C2)c2nnn(Cc3ccccc3CCS(=O)(=O)n3nnc4ccccc43)c2n1 [Example 30, 3-[[2-[2-(Benzotriazol-1-ylsulfonyl)ethyl]phenyl]methyl]-5-tert-butyl-7-(3,3-difluoropyrrolidin-1-yl)triazolo[4,5-d]pyrimidine] | > 10000 | 246 |
| CC(C)(C)c1nc(N2CCC(F)(F)C2)c2nnn(Cc3ccccc3CCS(=O)(=O)F)c2n1 [Example 31, 2-[2-[[5-tert-Butyl-7-(3,3-difluoropyrrolidin-1-yl)triazolo[4,5-d]pyrimidin-3-yl]methyl]phenyl]ethanesulfonyl fluoride] | 1360 | 27 |
| CC(C)(C)c1nc(N2CCC(F)(F)C2)c2nnn(Cc3ccccc3CCSSc3ccccn3)c2n1 [Example 32, 5-tert-Butyl-7-(3,3-difluoropyrrolidin-1-yl)-3-[[2-[2-(pyridin-2-yldisulfanyl)ethyl]phenyl]methyl]triazolo[4,5-d]pyrimidine] | 1860 | 72 |
| CC(C)(C)c1nc(N2CCC(F)(F)C2)c2nnn(Cc3ccccc3CCSSCCN)c2n1 [Example 33, 2-[2-[2-[[5-tert-Butyl-7-(3,3-difluoropyrrolidin-1-yl)triazolo[4,5-d]pyrimidin-3-yl]methyl]phenyl]ethyldisulfanyl]ethanamine] | 588 | 63 |
| NCCSSCCc1ccccc1Cn1nnc2c(N3CCC(F)(F)C3)nc(C(F)(F)c3ccccc3)nc21 [Example 34, 2-[2-[2-[[5-[Difluoro(phenyl)methyl]-7-(3,3-difluoropyrrolidin-1-yl)triazolo[4,5-d]pyrimidin-3-yl]methyl]phenyl]ethyldisulfanyl]ethanamine] | 230 | 177 |
| CC(C)(C)c1nc(N2CCC(F)(F)C2)c2nnn(Cc3ccccc3CCSSCC(O)CO)c2n1 (centres unmarked) [Example 35, 3-[2-[2-[[5-tert-Butyl-7-(3,3-difluoropyrrolidin-1-yl)triazolo[4,5-d]pyrimidin-3-yl]methyl]phenyl]ethyldisulfanyl]propane-1,2-diol] | 135 | 5 |
| CC(C)(C)c1nc(N2CCC(F)(F)C2)c2nnn(Cc3ccccc3SSCCO)c2n1 [Example 36, 2-[[2-[[5-tert-Butyl-7-(3,3-difluoropyrrolidin-1-yl)triazolo[4,5-d]pyrimidin-3-yl]methyl]phenyl]disulfanyl]ethanol] | 560 | 95 |
| C#Cc1cccc(S(=O)(=O)F)c1Cn1nnc2c(N3CCC(F)(F)C3)nc(C(C)(C)C)nc21 [Example 38, 2-[[5-tert-Butyl-7-(3,3-difluoropyrrolidin-1-yl)triazolo[4,5-d]pyrimidin-3-yl]methyl]-3-ethynylbenzenesulfonyl fluoride] | 311 | 1 |
